# Reference: patent US20040259770A1, “Method for determining leukocyte activation” (Rush University Medical Center, priority 2003, published 2004)
# How the values were obtained:
# eosinophils [1] = assay: Eosinophil superoxide production (cytochrome c reduction) in protein-coated tissue culture wells; format: cell-based, human; conditions: for inhibition of superoxide production stimulated by immobilized lactoferrin (in words): lower concentrations of heparin, any of the concentrations of chondroitin sulfate (30 to 1000 micrograms per milliliter); for inhibition of superoxide production stimulated by 30 micrograms per milliliter of immobilized lactoferrin: heparin 1000 micrograms per milliliter (highest concentration tested), 120 minutes at 37° C
# Description: Neutrophils were isolated from venous blood of healthy adult volunteers by density gradient centrifugation through lymphocyte separation medium (BioWhittaker; Walkersville, Md.) as described previously (Haskell M. D., et al., Blood 86:4627-4637 (1995)) with one modification. Isotonicity was restored following the brief hypotonic lysis steps by the addition of 2× concentrated Hank's Balanced Salt Solution (HBSS) (Gibco; Grand Island, N.Y.) (without Ca^2+ and Mg^2+) containing 5 mM HEPES, pH 7.4. The cells were suspended in HEPES (10 mM)-buffered HBSS (with Ca^2+ and Mg^2+), pH 7.4, containing 1 milligram per milliliter of human serum albumin (HSA) (Sigma Chemical Co.) (HEPES-HBSS-HSA buffer). Neutrophil purity was routinely greater than 95 percent, with eosinophils representing the remainder of the cells. Eosinophils were isolated from the neutrophil preparations by negative selection (Hansel T. T., et al., J. Immunol. Meth. 145:105-10 (1991)) using anti-CD16 immunomagnetic beads as described by the manufacturer (Miltenyi Biotec, Inc., Auburn, Calif.). The eosinophils were suspended in HEPES-HBSS-HSA buffer. Eosinophil purity was routinely greater than 95 percent as determined by counting Wright-stained cytospin preparations. In some assays, an aliquot of the neutrophil preparation was held on ice for later use.
# Superoxide production was measured essentially as described elsewhere (Motegi, Y., and H. Kita, J. Immunol. 161:4340 (1998)). Briefly, wells in a 96-well (flat bottom) tissue culture plate (Corning, Inc.; Corning, N.Y.) were coated with human milk lactoferrin (Sigma Chemical Co.) or human secretory IgA (ICN Biomedical; Aurora, Ohio) by incubation with 50 microliters of the indicated concentrations of the proteins in phosphate buffered saline (PBS) overnight at 4° C. Non-specific protein binding sites were blocked by subsequent incubation with 100 microliters of 25 milligrams per milliliter of HSA in PBS for 2 hours at 37° C., and the tissue culture wells were washed twice with PBS before use. Aliquots (5×10^4 cells) of eosinophils or neutrophils were added to the wells and were incubated in HEPES-HBSS—HSA buffer containing 50 micromolar cytochrome c (Sigma Chemical Co.) for 120 minutes at 37° C. in a Ceres UV900HDi microplate reader (Bio-Tek Instruments, Inc., Winooski, Vt.). Total incubation volume was 0.2 milliliters. Absorbance at 550 nanometers was recorded at 15-minute intervals, and superoxide production was calculated as described previously (Motegi, Y., and H. Kita, J. Immunol. 161:4340 (1998)). Results are expressed as nanomoles superoxide per 10^5 cells after subtraction of spontaneous production, which was measured in tissue culture wells coated only with HSA. GM-CSF (R & D Systems; Minneapolis, Minn.), porcine heparin (Sigma Chemical Co.), or chondroitin sulfate C (Sigma Chemical Co.) was added to the incubation mixtures in some assays as indicated.
# eosinophils [2] = assay: Eosinophil degranulation: EDN release by ELISA; format: cell-based, human; conditions: 100 picograms per milliliter GM-CSF, 3 and 10 micrograms per milliliter immobilized lactoferrin
# Description: Eosinophils (2×10^5) were incubated in the presence and absence of 100 picograms per milliliter of GM-CSF in RPMI 1640 containing 1 milligram per milliliter of HSA for 4 hours at 37° C. in 5 percent CO2 in tissue culture wells precoated with lactoferrin or secretory IgA as above. Total incubation volume was 0.2 milliliters. Reactions were stopped by centrifugation at 300 g for 5 minutes at 4° C., and supernatants were stored at −20° C. until measurement of eosinophil-derived neurotoxin (EDN) content by specific ELISA (MBL International, Watertown, Mass.). Spontaneous release of EDN was determined with cells incubated in HSA-coated wells.
# eosinophils [3] = assay: Eosinophil leukotriene C4 production by ELISA; format: cell-based, human
# Description: Eosinophils (2×10^5) were incubated in the presence and absence of 100 pg/ml GM-CSF in RPMI 1640 containing 10 mM HEPES for 1 hr at 37° C. in tissue culture wells precoated with lactoferrin or secretory IgA as above with one modification. The tissue culture wells were not treated with HSA and HSA was not added to the incubation buffer to minimize loss of leukotriene C4. Total incubation volume was 0.2 ml. Reactions were stopped by centrifugation at 300 g for 5 min at 4° C., and supernatants were stored at −20° C. until measurement of leukotriene C4 content by a leukotriene C4/D4/E4 ELISA (Amersham Pharmacia Biotech; Piscataway, N.J.). Spontaneous leukotriene C4 production was determined with eosinophils incubated in untreated tissue culture wells.
# [4] = tested on: lactoferrin receptors on eosinophils; assay: Binding of 125I-labeled lactoferrin by eosinophils, Scatchard analysis; set-up: species or system human; conditions: 5 micromolar transferrin, 90 nanomolar 125I-labeled lactoferrin, n=2
# Description: Lactoferrin (100 micrograms) was radioiodinated using IODO-GEN iodination reagent (Pierce; Rockford, Ill.) according to the procedure supplied by the manufacturer. The lactoferrin was incubated with 400 micro Curies Na^125I (PerkinElmer Life Sciences; Boston, Mass.) for 3 min, and the ^125I-labeled lactoferrin was separated from free Na^125I by chromatography through a 5-ml D-Salt dextran desalting column (Pierce) using PBS as the elution buffer. Protein concentration of the ^125I-labeled lactoferrin was measured by the BCA assay (Pierce). Specific activity of the ^125I-labeled lactoferrin was 34,800 cpm/pmole. […] Binding of ^125I-labeled lactoferrin by eosinophils was determined using a modification of previously described protocols for eosinophils. Motegi et al. J. Immunol. […] In some experiments as indicated, binding was measured in the presence of excess unlabeled transferrin. […] The supernatant was removed by careful aspiration, and after quick-freezing on dry ice the tip of the tube containing the cell pellet was excised and the radioactivity was measured by gamma counting (Beckman Coulter Gamma 5500B). Specific binding was determined as the difference between total binding and binding in the presence of the excess unlabeled lactoferrin. Binding constants were determined by Scatchard analysis (Scatchard, G., Ann. N.Y. Acad. Sci. 51:660 (1949)).
substance,measurement,setting,value
chondroitin sulfate [reference compound],effect on superoxide production stimulated by immobilized lactoferrin (in words),"eosinophils [1]; 1000 micrograms per milliliter, 30 micrograms per milliliter immobilized lactoferrin","slight, but statistically significant, increase in superoxide production"
same,inhibition of superoxide production stimulated by immobilized lactoferrin (in words),eosinophils [1],neither the lower concentrations of heparin nor any of the concentrations of chondroitin sulfate inhibited the eosinophil superoxide production
GM-CSF: granulocyte macrophage colony stimulating factor (R & D Systems),effect of GM-CSF on EDN release stimulated by immobilized lactoferrin,eosinophils [2],significantly enhanced EDN release
same,leukotriene C4 production,"eosinophils [3]; 100 picograms per milliliter GM-CSF alone, 1 hour",175 picograms leukotriene C4 per 10^6 eosinophils
same,effect of GM-CSF on leukotriene C4 release stimulated by immobilized lactoferrin,"eosinophils [3]; 100 picograms per milliliter GM-CSF, 10 to 100 micrograms per milliliter immobilized lactoferrin",significantly enhanced leukotriene C4 release
same,reduction by GM-CSF of the concentration of immobilized lactoferrin required for maximal superoxide production or EDN release,eosinophils [1]; 100 picograms per milliliter GM-CSF,approximately three-fold
same,effect of GM-CSF on superoxide production stimulated by immobilized lactoferrin,"eosinophils [1]; 100 picograms per milliliter GM-CSF, 10 micrograms per milliliter immobilized lactoferrin",enhanced the amount of superoxide production
same,effect of GM-CSF on superoxide production stimulated by immobilized lactoferrin,"eosinophils [1]; 100 picograms per milliliter GM-CSF, higher concentrations of immobilized lactoferrin",did not appear to increase the level of superoxide production
same,GM-CSF stimulated superoxide production,"eosinophils [1]; GM-CSF alone (100 picograms per milliliter), 2-hour time point, five assays",2.8±0.7 nanomoles of superoxide per 10^5 eosinophils
transferrin: unlabeled transferrin used in excess as competitor in the binding experiments [reference compound],inhibition of eosinophil binding of 125I-labeled lactoferrin,[4],not inhibited
heparin [reference compound],inhibition of superoxide production stimulated by 10 micrograms per milliliter immobilized secretory IgA,"eosinophils [1]; 1000 micrograms per milliliter heparin, not statistically significant (p=0.07)",28+/−11%
same,inhibition of superoxide production stimulated by 30 micrograms per milliliter of immobilized lactoferrin,eosinophils [1],approximately 25%
same,inhibition of superoxide production stimulated by 30 micrograms per milliliter of immobilized lactoferrin,eosinophils [1]; listed as Heparin,25%
same,inhibition of superoxide production stimulated by immobilized lactoferrin (in words),eosinophils [1],neither the lower concentrations of heparin nor any of the concentrations of chondroitin sulfate inhibited the eosinophil superoxide production
"immobilized transferrin: transferrin, family member of lactoferrin, coated on tissue culture wells [reference compound]",stimulation of eosinophil superoxide production (in words),"eosinophils [1]; 1 to 100 micrograms per milliliter of the protein, 2 hours at 37° C",did not stimulate superoxide production
